In patent US20250270170A1, “2,3-DIMETHOXY-5-METHYL-1,4-BENZOQUINONE ALKYL ALCOHOL DERIVATIVE AND USE THEREOF” (BEIJING ANJIANXI BIO-MEDICAL TECHNOLOGY CO., LTD., priority 2021, published 2025):

What was measured:
[1] = Example 11: body weight in cisplatin-induced acute kidney damage model; type: in vivo, C57BL/6J mice; conditions: mouse, in vivo
Protocol: 42 male C57BL/6J mice (age: 6 to 8 weeks, body weight 18-20 g, certificate number: 11400700238365) were purchased from Si Pei Fu (Beijing) Biotechnology Co., Ltd., and raised in an SPF-grade animal room of the Institute of Materia Medica, Chinese Academy of Medical Sciences, at a temperature of 20 to 25° C., a relative humidity of 40% to 70%, and a cycle of 12 hours of light and 12 hours of dark. The animals had free access to water and food. After 3 days of normal feeding, mice with good physical conditions after the veterinary examination were selected for this assay. Before grouping, a marker was used to mark on the base of the animals' tail. After grouping, each animal was marked with an ear cutout (7 mice in each group).
Assay animals: 42 7-week-old male C57 mice were used for animal testing after an adaptive feeding.
Group 1: blank control group;
The preparation of the R01 formulation administration test solution was the same as that in Example 5: an appropriate amount of the R01 formulation was weighed according to the three dosages set in the assay, respectively, and an appropriate volume of 0.5% CMC-Na aqueous solution was added. The mixture was vortexed and sonicated until mixed evenly, to give the administration test solutions with concentrations of […], respectively, which were ready for use.
Animal testing period: 7 days (excluding adaptive feeding), hereinafter referred to as: D1-D7.
1. The first group was a solvent control group: N=7, all mice were males (the same below); • a) 0.5% solution of sodium carboxymethyl cellulose was gavagely administered from D1 to D6 (twice a day for each animal, with an interval of 8 hours between the morning and the afternoon). • b) Physiological saline was intraperitoneally injected in one-time on D4. • c) On D7, blood was collected from the orbit for euthanasia (300 ul of serum was extracted), the left kidney was fixed in formaldehyde, and the right kidney was preserved in liquid nitrogen (WB study may be carried out).
3) Each animal was weighed before euthanasia, and the weight was recorded. Two kidneys were weighed as soon as possible after euthanasia, and the weight was recorded. Then, the two kidneys were quickly fixed or cryopreserved, and the kidney coefficient of the mouse was calculated (kidney weight/mouse weight).
The body weight of the animals when being grouped for administration in each group was recorded. The body weight and the kidney weight at the end of the assay were also recorded, and the kidney coefficient was calculated. The creatinine and urea nitrogen values in the blood samples sent for testing were recorded. The kidneys were stained with HE and PAS, and the slides were scanned. A report was issued after the pathological analysis.
The assay data were calculated and processed statistically using Microsoft Office Excel 2007 software. Unless otherwise specified, the data were expressed as mean±standard error (Mean±SE), and t-test was used for comparison between two groups.

NCI-H460 cells = test: Cell EDU proliferation assay, NCI-H460; type: cell-based, human; conditions: 150 μM
Protocol: The compound of formula (I) at a concentration of 150 μM was co-cultured with the cells for 42 h, and then the FBS concentration in the FBS stimulation well was increased to 20%. The cells were cultured for another 6 h, and then detected using a Cell-Light EDUApollo567 kit.
(1) Cells in the logarithmic growth phase were taken, and inoculated into a 24-well culture plate at 1×10^4 cells per well. The culture plate was cultured in a 37° C. incubator under the condition of 5% CO2, and drug was added according to the assay design when the cells adhered to the wall.
(2) After the drug treatment, the Cell-Light EDU Apollo567 kit was taken out. The reagent A in the kit was diluted with 1640 complete culture medium at a ratio of 1000:1 to prepare a 50 μM EDU culture medium, 300 μl of which was configured to each well of the 24-well plate. The 24-well plate was taken out from the incubator, and the original culture medium was aspirated with a vacuum aspirator. […]
(12) 150 μl of PBS was added to each well to wash once, and the PBS was discarded. Then, 200 μl of PBS was added, and the plate was placed on an inverted fluorescence microscope to take pictures. 6 fields of view were taken for each well under a 200× field of view, and the proportion of EDU-positive cells among 100 cells was calculated. […]

COC1=C(OC)C(=O)C(CCCCCCCCCCOC(=O)Cc2c(C)n(C(=O)c3ccc(Cl)cc3)c3ccc(OC)cc23)=C(C)C1=O [compound of formula (I)]
Body weight after the assay, After x (mean) ([1]; 6 mg/kg): 16.2 g
Body weight, Before x- after x ([1]; 6 mg/kg): 4.2 g
Body weight after the assay, After x (mean) ([1]; 18 mg/kg): 16.2 g
Body weight, Before x- after x ([1]; 18 mg/kg): 4.3 g
Body weight after the assay, After x (mean) ([1]; 36 mg/kg): 16.1 g
Body weight, Before x- after x ([1]; 36 mg/kg): 4.4 g
proportion of proliferating cells (EDU) (NCI-H460 cells; 48 hours, vs CTL (0 μM)): significantly reduced
cell proliferation under FBS stimulation (EDU) (NCI-H460 cells; FBS increased to 20% for last 6 h): can inhibit the cell proliferation effect
